The values that follow come from patent publication US20080119530A1, “Method for treatment and prevention of ultraviolet light induced skin pathologies” (priority 2006, published 2008).

Molecules are shown by their SMILES.

One assay relates to Akt. As to the kind of experiment: Akt activity by phosphorylation on immunoblot in keratinocytes. The class given is cell-based, mouse. Particulars: sham-irradiated keratinocytes and 30 minutes post-UV. The method, then:
Immunoblotting. Flash frozen skin was ground with a mortar and pestle on dry ice, homogenized in lysis buffer containing 10 mM Tris (pH 7.4), 150 mM NaCl, 10% glycerol, 1% Triton X-100, 1 mM EDTA, Complete Protease Inhibitor Cocktail (Roche, Germany), 1 mM Na3V O4, 1.5 μM EGTA, and 10 μM NaF. Protein was quantified using the Coomassie Brilliant Blue G-250 protein assay (Bio-Rad, Hercules, Calif.). The evenness of loading and transfer was determined by staining with Ponceau S and by actin immunoblotting. […]
Cell culture. […] Transfection efficiency was quantified by determining the proportion of the cells that incorporated the fluorescent Cy3-conjugated siRNA or GFP one day post-transfection. […]

For another assay, the system named is EGFR. As to the kind of experiment: UV-induced phosphorylation of EGFR. The class given is cell-based, mouse. From the text: (§1) For some experiments, the epidermis was separated from the skin by the heat shock method before homogenization. Keratinocytes were lysed in the same buffer. Membranes were immunoblotted with antibodies recognizing Erbb2, phospho-Erbb2 (Tyr^1248), EGFR, phospho-EGFR (Tyr^992), phospho-EGFR (Tyr^1173), phosphotyrosine, and Tall (Calbiochem, San Diego, Calif.). Binding of horseradish peroxidase-conjugated secondary antibodies (Cell Signaling, Beverly, Mass.) was visualized using chemiluminescent reagents (Pierce, Rockford, Ill.) and autoradiography. Densitometry was performed using IDScan software (Scanalytics, Fairfax, Va.).
Several methods were developed to regulate Erbb2 expression and activity both in vitro and in vivo.

For another assay, the system named is Erbb2. As to the kind of experiment: Erbb2 expression in keratinocytes (immunoblot). The class given is cell-based, mouse. The settings on record: cultured keratinocytes, AG825.
Excerpt: as §1
Cell culture. […] Keratinocytes were transfected with Erbb2-targeted siRNA (32), Stealth RNAi Negative Control LO GC (Invitrogen, Carlsbad, Calif.), Cy3-conjugated Label IT RNAi Delivery Control (Mirus, Madison, Wis.) or sham transfection with TransIT-siQUEST Transfection Reagent (Mirus, Madison, Wis.). Plasmids with Cdc25a (Hassepass et al. 2003a) and EGFP (enhanced green fluorescent protein) cDNA were cotransfected with Lipofectamine Transfection Reagent (Invitrogen, Carlsbad, Calif.). Transfection efficiency was quantified by determining the proportion of the cells that incorporated the fluorescent Cy3-conjugated siRNA or GFP one day post-transfection. […]

The target in another assay is Abl (Homo sapiens, UniProt P00519).
Abl, sequence (P00519 whole entry, species assumed): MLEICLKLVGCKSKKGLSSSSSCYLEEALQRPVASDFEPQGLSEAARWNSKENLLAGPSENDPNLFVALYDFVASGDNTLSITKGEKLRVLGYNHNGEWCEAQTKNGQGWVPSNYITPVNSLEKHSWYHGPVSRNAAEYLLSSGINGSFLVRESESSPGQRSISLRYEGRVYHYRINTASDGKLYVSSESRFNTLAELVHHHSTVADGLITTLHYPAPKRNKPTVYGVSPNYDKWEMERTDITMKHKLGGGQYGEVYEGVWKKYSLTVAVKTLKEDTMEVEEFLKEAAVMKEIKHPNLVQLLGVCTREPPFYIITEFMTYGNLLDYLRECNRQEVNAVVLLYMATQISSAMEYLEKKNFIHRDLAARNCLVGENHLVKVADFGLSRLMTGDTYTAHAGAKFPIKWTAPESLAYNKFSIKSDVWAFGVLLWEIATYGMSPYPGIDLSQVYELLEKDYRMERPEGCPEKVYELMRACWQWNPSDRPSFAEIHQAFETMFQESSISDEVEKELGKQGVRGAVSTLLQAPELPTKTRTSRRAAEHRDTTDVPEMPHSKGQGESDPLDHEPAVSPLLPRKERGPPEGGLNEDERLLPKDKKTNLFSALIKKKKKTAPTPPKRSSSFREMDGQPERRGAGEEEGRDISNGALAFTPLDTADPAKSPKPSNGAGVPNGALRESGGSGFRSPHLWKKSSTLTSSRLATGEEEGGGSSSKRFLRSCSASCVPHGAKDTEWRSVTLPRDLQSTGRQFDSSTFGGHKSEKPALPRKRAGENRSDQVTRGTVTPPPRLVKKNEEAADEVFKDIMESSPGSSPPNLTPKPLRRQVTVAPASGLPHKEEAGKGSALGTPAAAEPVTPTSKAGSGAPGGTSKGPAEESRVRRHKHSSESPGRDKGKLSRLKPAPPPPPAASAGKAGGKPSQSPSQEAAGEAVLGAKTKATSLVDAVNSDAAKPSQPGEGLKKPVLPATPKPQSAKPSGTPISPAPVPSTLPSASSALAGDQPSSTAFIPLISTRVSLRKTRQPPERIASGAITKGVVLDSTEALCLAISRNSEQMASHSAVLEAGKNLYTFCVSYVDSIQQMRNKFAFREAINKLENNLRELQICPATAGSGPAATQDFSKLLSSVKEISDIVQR

On to `COc1cc(/C=C(\C#N)C(N)=O)cc(CSc2nc3ccccc3s2)c1O` [AG825], for which the “Akt activity, measured by its phosphorylation on immunoblot” value with Akt is on record as “reduced”. Also, in the assay on EGFR, the “EGFR phosphorylation at Tyr1173 after UV” value is recorded as “did not block” and the “UV-induced phosphorylation of EGFR-Tyr992” value was “blocked”. The “expression levels of Erbb2” value in the assay with Erbb2 was “without altering”. For the same molecule, the “fold higher IC50 for Abl than for Erbb2” value at Abl was “more than 100 fold”.
